Two compounds from US4816452A, “Aminothiazole substituted penicillins and antibacterial compositions thereof” (Beecham Group P.L.C., priority 1985, dated 1989) can be followed below.

Broadly, the AUC is concentration integrated over time. Lower therefore signals low exposure.

Structures are written as SMILES. Values after ≈ are worked out from the molar mass of the structure shown.

Data set [1] in a line: Blood concentration in mice after subcutaneous administration. Type of data set: in vivo. Particulars: mouse, sc, 50 mg/kg. How it is done: The compound of example 4 was administered to mice (5) by the subcutaneous route at a dosage of 50 mg/kg and the blood concentration determined.
The test system of another data set is S. aureus V573. The data set can be described thus: In vitro MIC, S. aureus V573 (methicillin resistant strain). Format: cell-based. Particulars: Staphylococcus aureus. An excerpt:
In Vitro Biological Data.
(+ = methicillin resistant strain)

The test system of a further data set is S. pneumoniae 1761. Nature of the data set: In vitro MIC, S. pneumoniae 1761. Format: cell-based. Conditions: Streptococcus pneumoniae. The source says:
(§1) |In Vitro Biological Data.

For a further data set, the system named is H. influenzae NEMCl. The data set can be described thus: In vitro MIC, H. influenzae NEMCl. Type of data set: cell-based. Particulars: Haemophilus influenzae.
From the text: as §1

Data set [2] deals with S. aureus MB9. Nature of the data set: In vitro MIC, S. aureus MB9. Particulars: for MIC: Staphylococcus aureus; for (M.I.C): in vivo. Type of data set: cell-based.
From the text: as §1

In data set [3] the test system is S. aureus Smith. The data set can be described thus: M.I.C, S. aureus Smith. Format: cell-based. Particulars: Staphylococcus aureus, in vivo.
Data set [4] deals with S. aureus Smith. Nature of the data set: In vivo experimental infection in mice, S. aureus Smith. Particulars: Staphylococcus aureus, sc, subcutaneous, dosed at 1 and 5 hours after infection, 5 mice/group, read-out: Total S.C. CD50. As to the method:
(§2) In Vivo Biological Data.
(§3) The compound of example 4 was tested in vivo in mice
(§4) against experimental infections. The results of these
(§5) *dosed at 1 and 5 hours after infection. 5 mice/group.

In the next data set the test system is H. influenzae Q1. Nature of the data set: In vitro MIC, H. influenzae Q1. Type of data set: cell-based. Conditions: Haemophilus influenzae.
From the text: as §1

In a further data set the test system is S. epidermidis PHLN20. Nature of the data set: In vitro MIC, S. epidermidis PHLN20. Conditions: Staphylococcus epidermidis. Type of data set: cell-based.
From the text: as §1

The next data set has as its system S. aureus Oxford. Nature of the data set: In vitro MIC, S. aureus Oxford. Format: cell-based. Conditions: Staphylococcus aureus.
From the text: as §1

The subject of data set [5] is S. aureus MB9. The data set can be described thus: In vivo experimental infection in mice, S. aureus MB9. Conditions: Staphylococcus aureus, sc, subcutaneous, dosed at 1 and 5 hours after infection, 5 mice/group, read-out: Total S.C. CD50. As to the method:
as §2, §3, §4, §5

A further data set deals with B. catarrhalis Ravasio. The data set can be described thus: In vitro MIC, B. catarrhalis Ravasio. Type of data set: cell-based. Particulars: Moraxella catarrhalis.
From the text: as §1

In [1], `CC1(C)S[C@@H]2[C@H](NC(=O)/C(=N\OC3CCCCC3)c3csc(N)n3)C(=O)N2[C@H]1C(=O)O` [Example 4, Sodium 6β-[2-(2-aminothiazol-4-yl)-(Z)-2-cyclohexyloxyiminoacetamido]penicillanate] gave an AUC of 9520 ng·h/mL. For the same compound, in data set [1] (5 mins), the concentration at 5 min amounted to 31000 ng/mL. In data set [1] (10 mins), this compound showed a concentration at 10 min of 21800 ng/mL. This compound also registered a concentration at 20 min in data set [1] (20 mins) of 14300 ng/mL. This compound returned a concentration at 0.5 h in data set [1] (30 mins) of 7700 ng/mL. In [1] (60 mins), this compound registered a concentration at 1 h of 900 ng/mL. Also, the concentration at 2 h in [1] (120 mins) was under 90 ng/mL. Besides, the MIC in the data set with S. aureus V573 was 4 µg/mL; in the data set on S. pneumoniae 1761, under 0.03 µg/mL; with H. influenzae NEMCl, 0.5 µg/mL; with S. aureus MB9 [2], 0.5 µg/mL; against S. aureus Smith [3], 0.12 µg/mL; against H. influenzae Q1, 0.12 µg/mL. The MIC came to 0.25 µg/mL in the data set on S. epidermidis PHLN20, 0.12 µg/mL against S. aureus Oxford and 0.25 µg/mL in the data set on B. catarrhalis Ravasio. Moreover, the (M.I.C) with S. aureus MB9 [2] is 0.5 µg/mL. Also, the ED50 was 1.5 mg/kg in the data set on S. aureus Smith [4] and 4 mg/kg with S. aureus MB9 [5].

In the case of `Cc1onc(-c2c(F)cccc2Cl)c1C(=O)N[C@@H]1C(=O)N2[C@@H]1SC(C)(C)[C@@H]2C(=O)O` [flucloxacillin, reference compound], the MIC against S. aureus V573 came to 32 µg/mL (≈ 70.5 µM); with S. pneumoniae 1761, 0.25 µg/mL (≈ 0.551 µM); in the data set on H. influenzae NEMCl it was 16 µg/mL (≈ 35.3 µM); in the data set with S. aureus MB9 [2], 0.5 µg/mL (≈ 1.1 µM); in the data set on S. aureus Smith [3], 0.25 µg/mL (≈ 0.551 µM); in the data set with H. influenzae Q1 it was 4 µg/mL (≈ 8.81 µM). In addition, the MIC in the data set on S. epidermidis PHLN20 stood at 0.25 µg/mL (≈ 0.551 µM); in the data set on S. aureus Oxford it was 0.25 µg/mL (≈ 0.551 µM); with B. catarrhalis Ravasio it was 16 µg/mL (≈ 35.3 µM). The compound also registered a (M.I.C) in the data set with S. aureus MB9 [2] of 0.5 µg/mL. Also, the results for the ED50 in the data set on S. aureus Smith [4] and with S. aureus MB9 [5] were 6 mg/kg and 17 mg/kg, respectively.
